The source of these data is patent publication US20160346406A1, “METHOD FOR INCREASING THE INTRAOCULAR PRESSURE IN AN ANIMAL” (INSTITUT NATIONAL DE LA SANTE ET DE LA RECHERCHE MEDICALE …, priority 2011, published 2016).

“Also recorded” adds a separate entry of the source.

For data set [1], the system named is Long-Evans rats. Briefly: In vivo outflow facility measurement. The conditions noted are these: six days after second injection of 0.1% BAK; infusion 0.1, 0.2, 0.3 μL/min; vs vehicle-injected control eyes. Details: species or system rat. Here is the method: Six days after the second injection of BAK, trabecular outflow facility was measured in vivo under general anaesthesia. The eyes were anteriorly canulated with a 30-G needle connected by tubing to a 1 mL syringe filled with PBS and loaded into a microdialysis infusion pump. Intraocular pressure was measured after a 10-min stabilization period for three different infusion flow rates (0.1, 0.2, and 0.3 μL/min). Aqueous humor outflow facility was calculated as the reciprocal of the slope of the respective ocular pressure/flow rate curves. Outflow facility (OF) was decreased in BAK-injected eyes as compared to vehicle-injected control eyes.
Six days after the second injection of BAK, trabecular outflow facility was measured in vivo under general anaesthesia (intraperitoneal injection of ketamine 75 mg/kg and xylazine 10 mg/kg). Briefly, the eyes were anteriorly canulated with a 30-G needle connected by tubing to a 1 mL syringe filled with PBS and loaded into a microdialysis infusion pump (World Precision instruments). Intraocular pressure was measured after a 10-min stabilization period for three different infusion flow rates (0.1, 0.2, and 0.3 μL/min). Aqueous humor outflow facility (μL/min/mmHg) was calculated as the reciprocal of the slope of the respective ocular pressure/flow rate curves.

Data set [2] deals with Long-Evans rats. Briefly: Intra-ocular pressure monitoring after two subconjunctival injections of 0.1% BAK. It is filed as in vivo, rat. Here is the method:
Six male 8-week-old Long-Evans rats weighing 300-350 g were used. At D0, first subconjunctival injection of 0.1% BAK (100 μL) was performed in the right eye whereas the left eye received 0.9% NaCl vehicle only as control. A second injection was performed seven days after following the same protocol. Animals were daily monitored for intra-ocular pressure using a handheld tonometer, without sedation.
Six male 8-week-old Long-Evans rats weighing 300-350 g were used. Animals were kept in pathogen-free conditions with food and water available ad libitum and housed in a 12-h light/12-h dark cycle. Ocular integrity was checked using the slit lamp biomicroscope. At D0, first subconjunctival injection of 0.1% BAK (100 μL) was performed in the right eye whereas the left eye received PBS only as control. A second injection was performed seven days after following the same protocol. Animals were daily monitored for intra-ocular pressure using a handheld tonometer (TonoLab, Medtronics, Jacksonville, Fla., USA) without sedation. All experiments were conducted in accordance with the Association for Research in Vision and Ophthalmology for the Use of Animals in Ophthalmic research.

For a further data set, the system named is trabecular cells. Briefly: Ex vivo trabecular cell apoptosis (TUNEL labelling). Format: in vivo, rat. The conditions noted are these: BAK-injected eyes vs controls, end of experiments; P<0.01. Here is the method:
At the end of the experiments, animals were euthanized and the eyes were immediately conditioned for TUNEL labelling. Eyes were fixed in 4% paraformaldehyde, embedded in an optimal cutting-temperature compound (OCT, Tissue-Tek, Miles Inc, Bayer Diagnostic, Puteaux, France) and cut into 15-μm cryosections. A terminal deoxynucleotidyl transferase-mediated dUTP nick-end labelling (TUNEL) assay (Roche Diagnostics, Meylan, France) was performed to detect apoptosis in rat ocular tissues following the manufacturer's instructions. Specimens were mounted in aqueous mounting medium with DAPI to be further analyzed using light epifluorescence microscopy.

Another data set has as its system ocular surface. Briefly: In vivo assessment of BAK injection toxicity to the ocular surface (in vivo confocal microscopy, IVCM). Here is the method:
In vivo confocal microscopy (IVCM) using the Heidelberg Retina Tomograph II/Rostock Cornea Module (Heidelberg Engineering GmbH, Heidelberg, Germany) laser-scanning was carried out to assess putative damage to the ocular surface. Images size was 400 per 400 hundred pixels with a lateral resolution of 1 micrometer and an axial resolution of 2 micrometers. […] IVCM scores were used to evaluate ocular surface toxicity profiles in the 4 groups (vehicle, 0.01% BAK, 0.05% BAK, and 0.1% BAK) in different histological regions (superficial epithelium, basal epithelium, anterior stroma, limb and conjunctival stroma), 30 days after the first BAK administration (see Table 1). […] [table]

Data set [3] in a line: Dose-dependent effects of subconjunctival injections of BAK on intraocular pressure. Format: in vivo. The conditions noted are these: 3 subconjunctival injections (0.15 mL, each 48 h). Here is the method:
A series of 3 subconjunctival injections with 0.01% BAK (n=3), 0.05% BAK (n=3), 0.1%, BAK (n=6) or the vehicle (n=4) was performed (0.15 mL, each 48 h during 6 days) in the right eye of animals. Intraocular pressure was measured using a handled tonometer every two days from D0 to D28. Intraocular pressure is expressed as the difference between the treated eye (right) and the left control eye.

As to benzalkonium chloride [BAK], in the data set on Long-Evans rats [1], the “trabecular (aqueous humor) outflow facility” value is on record as “decreased; also recorded: low trabecular outflow facility”. Also, the “intra-ocular pressure after second injection” value in the data set with Long-Evans rats [2] (0.1% BAK (100 μL) subconjunctival at D0 and seven days after, vs control eyes, D9 and D14, P<0.01) is “significantly rose and remained significantly elevated; also recorded: Significant difference; also recorded: became significant”. Also, in the data set with Long-Evans rats [2] (0.1% BAK (100 μL) subconjunctival, right eye, vs vehicle control eye, D7), the “intra-ocular pressure after first injection” value was “no effect; also recorded: slight increase”. Also, the “trabecular apoptotic cells (TUNEL labelling)” value in the data set on trabecular cells is reported as “Significant difference; also recorded: increased”. Moreover, the “IVCM subscore: limbus and conjunctiva, animals with peripheral vasodilatation” value is “one” in the data set on ocular surface (0.01% BAK (n=3)) and “three” in the data set with ocular surface (0.1% BAK (n=6)). In addition, the “IVCM subscore: basal epithelium” value in the data set with ocular surface (4 groups (vehicle, 0.01%, 0.05%, 0.1% BAK)) was “unchanged”. Besides, the “IVCM subscore: anterior stroma” value in the data set on ocular surface (BAK 0.1% group) is listed as “trend for hyperplasia of the subbasal nerve plexi”. The “IVCM: posterior stroma and endothelium toxicity” value with ocular surface (all BAK concentrations) was “no toxicity was found”. For the same substance, the “IVCM subscore: superficial epithelium” value in the data set with ocular surface (all the animals) is on record as “slight epithelial swelling”. In addition, the “overall IVCM score (ocular surface toxicity)” value with ocular surface (vehicle, 0.01%, 0.05% and 0.1% BAK groups, 30 days after first BAK administration, Kruskal Wallis test, p>0.05) is reported as “No significant difference; also recorded: No statistical difference”. In the data set on ocular surface (whatever the BAK concentration), the “anterior eye abnormality / ocular surface pathological changes” value is listed as “Neither anterior eye abnormality nor ocular surface pathological changes were found”. Also, the “intraocular pressure, difference between treated eye and left control eye” value in data set [3] (0.05% BAK, D9) is “significant ocular hypertension”; in data set [3] (0.1% BAK, D7, D11 and D14), “significant increase”; in data set [3] (other times or BAK concentrations (0.01% BAK), D0 to D28), “did not show significant changes”.
